IC50 data for four compounds are collected here from BindingDB's records for doi:10.1021/jm0204035 (Glaxosmithkline, 2003).

In test [1] the target is T1, Enoyl-[acyl-carrier-protein] reductase [NADH] FabI (Escherichia coli (strain K12), UniProt P0AEK4).
T1 sequence (P0AEK4 whole entry): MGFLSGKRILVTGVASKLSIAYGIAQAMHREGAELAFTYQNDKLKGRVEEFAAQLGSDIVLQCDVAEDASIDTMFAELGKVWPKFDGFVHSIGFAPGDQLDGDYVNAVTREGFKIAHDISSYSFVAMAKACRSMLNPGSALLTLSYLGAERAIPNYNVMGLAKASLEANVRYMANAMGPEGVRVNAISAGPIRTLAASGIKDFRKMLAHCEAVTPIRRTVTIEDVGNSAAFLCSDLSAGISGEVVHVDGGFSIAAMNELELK
The test is described as follows: Enzyme Inhibition Assay. The conditions noted are these: pH 6.5; 30 °C. The procedure:
(§1) Assays were carried out in half-area, 96-well microtiter plates. Compounds were evaluated in assay mixtures containing components specific for each enzyme. Inhibitors were varied over the range 0.01-10 uM. The consumption of NAD(P)H was monitored for 20 min at 30 °C by following the change in absorbance at 340 nm. IC50 values were estimated from a fit of the initial velocities to a standard equation.

In test [2] the target is Trans-2-enoyl-ACP reductase II (Streptococcus pneumoniae, UniProt Q9FBC5). The test is described as follows: Enzyme Inhibition Assay. Conditions: 30 °C. As to the method:
as §1

Structures are written as SMILES.

Sequence of Trans-2-enoyl-ACP reductase II (Q9FBC5 whole entry): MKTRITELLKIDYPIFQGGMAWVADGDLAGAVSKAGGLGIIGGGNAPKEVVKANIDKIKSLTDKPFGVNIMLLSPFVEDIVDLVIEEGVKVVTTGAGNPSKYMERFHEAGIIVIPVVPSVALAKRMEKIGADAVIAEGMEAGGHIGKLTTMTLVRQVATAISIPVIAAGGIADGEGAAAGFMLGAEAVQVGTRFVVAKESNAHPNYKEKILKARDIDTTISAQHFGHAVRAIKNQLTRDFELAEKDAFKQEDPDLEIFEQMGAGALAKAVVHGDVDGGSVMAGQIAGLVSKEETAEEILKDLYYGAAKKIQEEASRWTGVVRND

As for `Cc1cccc2c(CN(C)C(=O)/C=C/c3cnc4c(c3)CCC(=O)N4)c(C)n(C)c12` [(2E)-N-methyl-3-(7-oxo-5,6,7,8-tetrahydro-1,8-naphthyridin-3-yl)-N-[(1,2,7-trimethyl-1H-indol-3-yl)methyl]prop-2-enamide], the concentration for half-maximal inhibition (IC50) in test [1] is less than 0.07 µM; in test [2] it was more than 30 µM. In turn, `Cc1c(CN(C)C(=O)/C=C/c2cnc3c(c2)CCC(=O)N3)c2ccccc2n1C` [(E)-N-(1,2-Dimethyl-1H-indol-3-ylmethyl)-N-methyl-3-(7-oxo-5,6,7,8-tetrahydro-1,8-naphthyridin-3-yl)acrylamide] had a half-inhibitory concentration (IC50) in test [2] of more than 30 µM.

`Cc1[nH]c2ccccc2c1CN(C)C(=O)/C=C/c1cnc2c(c1)CCC(=O)N2` [(2E)-N-methyl-N-[(2-methyl-1H-indol-3-yl)methyl]-3-(7-oxo-5,6,7,8-tetrahydro-1,8-naphthyridin-3-yl)prop-2-enamide]: the IC50 in test [1] is less than 0.06 µM. With `Oc1cc(Cl)ccc1Oc1ccc(Cl)cc1Cl`, in test [2], the IC50 is more than 30 µM.

Broadly, the IC50 is the concentration at which inhibition is half-maximal. Lower therefore signals inhibition by little substance.
